Tests used:
Type in all cases: physicochemical
[1] = Chemical stability by HPLC purity re-test / degradation; conditions: for Initial Purity: HPLC 1-24 hours post-synthesis
Method: Various lots of Example 1 were analyzed by HPLC shortly after synthesis (analysis from 1-24 hours post-synthesis) and re-tested for purity a unit of time later.
Purity analysis was performed on an Agilent HP1100 series system equipped with a diode array detector and using ChemStation software vB.04.03 using one of the methods detailed below: […]

[2] = Storage at elevated temperature and humidity (40° C./75% RH, 25° C./95-97% RH; XRPD, HPLC); conditions: for Storage at 40° C. and 75% RH and 25° C. and 95% RH / exposure to humidity (form, purity): scaled-up salts; for change of form under temperature and humidity conditions: conclusion
Method: Example 1 was dissolved in solvent (240 mg in 2.4 mL, 10 volumes) to form stock solutions and then dispensed into vials (400 μL/˜40 mg per vial). The solutions were treated with 1 equivalent of counterions (for hydrochloric acid (HCl), sulfuric acid (H2SO4 or “SO4”), methanesulfonic acid (mesylate or “MSA”), phosphoric acid (H3PO4 or “PHOA”), and L-tartaric acid (TAR), 77 μL for 1M; for fumaric acid (FUA), 154 μL for 0.5M) using stock solutions. The solutions/suspensions were then cooled down to 0° C. at 0.2° C./min and stirred at 0° C. overnight. The resulting solids were analyzed by XRPD and those that were amorphous or poorly crystalline were then matured for 5 days. If after cooling to 0° C. a clear solution or gum was obtained, the mother liquors were removed from the vials, split in two and anti-solvent (MTBE or heptane, 400 μl) added to each of the aliquots. After anti-solvent addition, the samples were matured for 5 days. After maturation, clear solutions and gums were allowed to evaporate at ambient conditions. Suspensions were filtered, air-dried and characterized by XRPD. Any resulting crystalline solids were characterized by high resolution XRPD, 1H NMR, HPLC and one week storage at 40° C. and 75% RH.
Example 1 was dissolved in methyethyl ketone (MEK) or acetonitrile (MeCN) (20 mg in 200 μl, 10 vol) at ambient conditions. The solutions were then heated to 50° C., treated with 1.1 or 2.1 eq of acid and stirred at this temperature for 1 hour. The resulting solutions/suspensions were then cooled down to 5° C. at 0.1° C./min and held overnight. Any solids obtained were analyzed by XRPD and those that were amorphous or poorly crystalline were then matured between 50° C./ambient on an 8-hour cycle. Any clear solutions were left to evaporate slowly at ambient conditions. If the samples evaporated to form gums, these were dissolved in IPA (10 vol, 200 μL) and then matured. Any solutions with gums present were also matured between 50° C./ambient on an 8 hour cycle. Any resulting crystalline solids were characterized by high resolution XRPD, NMR, HPLC, IC (for inorganic counter-ions) and one week storage at 40° C. and 75% RH.
In the first experiment, Example 1 was dissolved in MEK or MeCN (100 mg in 1 mL, 10 vol) at ambient conditions. The solutions were then heated to 50° C., treated with 2.1 eq of p-toluene sulfonic acid monohydrate (1M in THF, 405 μL) and stirred constant temperature for 1 hour. The resulting suspensions were then cooled down to 5° C. at 0.1° C./min overnight. Any solids obtained were analyzed by XRPD and those that were amorphous or weakly crystalline were then matured between 50° C./ambient on an 8-hour cycle for 7 days. Any resulting crystalline solids were characterized by high resolution XRPD, ^1H NMR, HPLC, TGA, DSC and one week storage at 40° C. and 75% RH. […] However, after further maturation to try and improve the crystallinity, both tosylate salts were consistent with pTSA Form 2 by XRPD. […]
(§1) A preliminary polymorphism assessment was carried out on the three most crystalline salt forms, the mono tartrate (TAR Form 1), mono oxalate (OXA Form 1), and bis tosylate (pTSA Form 2). Each salt was treated with the relevant solvent (10 vol, 30 mg in 300 μL) at 25° C. The samples were stirred for 10 minutes and then heated to 50° C. for 1 hour. The resulting suspensions were matured for 24 hours and any resulting solutions were allowed to evaporate slowly. After maturation or evaporation, the solids were filtered and air-dried before analysis by XRPD.
Amorphous bis tosylate was suspended in the solvent system below (30 mg in 150 μl) at ambient conditions. The suspensions were shaken in the maturation chamber between ambient and 50° C. for 19 h (8 h cycles), then allowed to stand at ambient conditions for 10 min. An aliquot of the solid was air dried and analyzed by XRPD and then placed for 1 week at 40° C./75% RH and re-analyzed. […]

[3] = Gravimetric Vapour Sorption (GVS); conditions: for GVS water uptake: full cycle, 25° C.; for hygroscopicity: conclusion
Method: Sorption isotherms were obtained using a SMS DVS Intrinsic moisture sorption analyzer, controlled by DVS Intrinsic Control software v1.0.1.2 (or v 1.0.1.3). The sample temperature was maintained at 25° C. by the instrument controls. The humidity was controlled by mixing streams of dry and wet nitrogen, with a total flow rate of 200 mL/min The relative humidity was measured by a calibrated Rotronic probe (dynamic range of 1.0-100% RH), located near the sample. The weight change, (mass relaxation) of the sample as a function of % RH was constantly monitored by the microbalance (accuracy ±0.005 mg).
Typically 5-20 mg of sample was placed in a tared mesh stainless steel basket under ambient conditions. The sample was loaded and unloaded at 40% RH and 25° C. (typical room conditions). A moisture sorption isotherm was performed as outlined below (2 scans giving 1 complete cycle). The standard isotherm was performed at 25° C. at 10% RH intervals over a 0-90% RH range. Data analysis was carried out using Microsoft Excel using DVS Analysis Suite v6.2 (or 6.1 or 6.0).

[4] = Variable temperature XRPD (VT-XRPD)
Method: Samples run under ambient conditions were prepared as flat plate specimens using powder as received without grinding. Approximately 1-2 mg of the sample was lightly pressed on a glass slide to obtain a flat surface. Samples run under non-ambient conditions were mounted on a silicon wafer with heat-conducting compound. The sample was then heated to the appropriate temperature at 20° C./min and subsequently held isothermally for 1 minute before data collection was initiated.

[5] = Polymorphism assessment (slurry, maturation, evaporation; XRPD); conditions: 10 solvents, maturation 24 hours
Method: as §1
Amorphous bis tosylate was suspended in the solvent system below (30 mg in 150 μl) at ambient conditions. The suspensions were shaken in the maturation chamber between ambient and 50° C. for 19 h (8 h cycles), then allowed to stand at ambient conditions for 10 min. An aliquot of the solid was air dried and analyzed by XRPD and then placed for 1 week at 40° C./75% RH and re-analyzed. If solutions were recovered, the solvents were allowed to evaporate at ambient conditions and the residues were initially analyzed by XRPD.
(8 h cycles). After 4 days the solids were filtered and air dried. Solids obtained were initially analyzed by XRPD. Maturation in n-heptane, diethyl ether, ethyl acetate, isopropyl acetate, methylisobutyl ketone, 2-propanol, methylethyl ketone, acetone, tert-butylmethyl ether, cyclohexane, 1,4-dioxane, toluene, chloroform, 1,2-dimethoxyethane, tetrahydrofuran, acetonitrile, nitromethane, and 2-propanol:water 95:5 yielded filtered solids of Form 2.
Supernatants from the maturation experiments and solutions from cooling were allowed to slowly evaporate at ambient conditions. The residues were analyzed by XRPD. Slow evaporation from the following supernatants yielded: dimethyl sulfoxide, oil; water, oil; N,N-dimethylformamide, gum; N-methylpyrrolidone, oil; tetrahydrofuran:water 95:5, gum; and acetone:water 95:5 gum. Solutions obtained after the solubility assessment were placed in a fridge (4° C.) for 2 days and in a freezer (−20° C.) for another 2 days. No solids were recovered. […]

Molecule | Re-Test Purity ([1]; Lot 1, free base, 49 days between tests) [%] | Initial Purity ([1]; Lot 1, free base) [%] | Re-Test Purity ([1]; Lot 2, free base, 16 days between tests) [%] | Initial Purity ([1]; Lot 2, free base) [%] | stability of free base form ([1]; ambient conditions) | behaviour of free base form at high humidity ([2]; high humidity) | chemical stability relative to free form ([2]; limited stability studies) | Storage at 40° C. and 75% RH and 25° C. and 95% RH / exposure to humidity (form, purity) [2] | form by XRPD post GVS [3] | GVS water uptake [3] [% w/w] | temperature up to which crystalline form is unchanged (VT-XRPD) [4] [°C] | change in crystalline form in polymorphism assessment [5] | change of form under temperature and humidity conditions [2] | hygroscopicity [3] | loss in purity on storage ([2]; 40° C. and 75% RH) [%] | Storage at 40° C. and 75% RH (form by XRPD) ([2]; one week)
CN1CCN(C(=O)C(CN[C@@H]2C[C@H]2c2ccc(F)cc2)NC(=O)c2ccc(-n3ccnn3)cc2)CC1 (stereo partly drawn) [Example 1, N-[3-[[(1R,2S)-2-(4-Fluorophenyl)cyclopropyl]amino]-1-(4-methylpiperazin-1-yl)-1-oxopropan-2-yl]-4-(1H-1,2,3-triazol-1-yl)benzamide] | 82 | 93 | 72 | 81 | degrades at ambient conditions over time | deliquesces when subjected to high humidity |  |  |  |  |  |  |  |  |  | 
tosylate |  |  |  |  |  |  | improved chemical stability over the free form | no changes in the form or purity | No change in form was observed | ~5 | 170 | no change in crystalline form was noted in 9 |  |  |  | 
oxalate |  |  |  |  |  |  |  | changed the form of the material to OXA Form 2 | change in form to OXA Form 2 | ~12 | 140 | only one change in form was observed | changed form under humidity, but not temperature conditions | hygroscopic |  | 
O=C(O)C(O)C(O)C(=O)O (stereo not drawn) [tartrate] |  |  |  |  |  |  |  | changes in crystallinity and form | decreased crystallinity and a change in form | ~30 |  | five of the tartrate samples changed in form | change under both temperature and humidity conditions | highly hygroscopic | > 30 | no change in form was observed

Source: patent US11230534B2, “KDM1A inhibitors for the treatment of disease” (Imago Biosciences, Inc., priority 2015, dated 2022)
